ChEMBL document CHEMBL1134573, “Utilization of a peptide lead for the discovery of a novel PTP1B-binding motif” (J Med Chem, 2001)
Starred links: 1 amine or outer side, 2 acyl side, 3 side chain; linkers in the order of their positions; H or OH if unused. Non-standard residues stand in square brackets, D forms with d. Residues, ends and D or L forms follow the SMILES beside them. X1 = O=C(O)COc1ccc(C[C@H](N[*:1])C(=O)[*:2])cc1C(=O)O; F2Pmp = N[C@@H](Cc1ccc(C(F)(F)P(=O)(O)O)cc1)C(=O)O

biological target: T1, Tyrosine-protein phosphatase non-receptor type 1 (Homo sapiens, UniProt P18031); assay: Inhibitory activity against human Protein-tyrosinephosphatase 1B (PTP1B)
T1 sequence (P18031 whole entry): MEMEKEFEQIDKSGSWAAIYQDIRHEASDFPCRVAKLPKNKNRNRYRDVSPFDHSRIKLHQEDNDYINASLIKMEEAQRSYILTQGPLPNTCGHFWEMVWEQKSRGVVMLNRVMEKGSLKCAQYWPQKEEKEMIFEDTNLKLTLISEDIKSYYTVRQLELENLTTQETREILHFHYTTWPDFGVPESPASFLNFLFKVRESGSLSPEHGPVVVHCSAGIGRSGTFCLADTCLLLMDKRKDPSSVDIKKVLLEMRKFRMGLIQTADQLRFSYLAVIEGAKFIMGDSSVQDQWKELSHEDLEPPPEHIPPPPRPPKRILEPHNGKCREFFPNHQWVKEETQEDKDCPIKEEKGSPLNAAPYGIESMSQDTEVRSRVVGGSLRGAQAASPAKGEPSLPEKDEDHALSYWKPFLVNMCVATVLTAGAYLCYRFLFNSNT

Row | IC50 [mM] | Ki [mM] | Structure (SMILES)
1 | 9.4 | – | O=C(O)c1ccc2cc(OC(F)(F)C(=O)O)ccc2c1
2 | 28 | – | O=S(=O)([O-])c1cccc2c(S(=O)(=O)[O-])cccc12.[Na+].[Na+]
3 | 20 | – | COc1ccc2cc(C(=O)O)ccc2c1C(=O)O
4 | – | 0.9 | O=C(O)COc1ccc2cc(C(=O)O)ccc2c1C(=O)O
5 | 2.8 | – | COC(=O)c1ccc2c(C(=O)O)c(OC)ccc2c1
6 | – | 0.0036 | CC(=O)N[C@@H](CC(=O)O)C(=O)N[C@@H](C)C(=O)N[C@@H](CC(=O)O)C(=O)N[C@@H](CCC(=O)O)C(=O)N[C@@H](Cc1ccc(OCC(=O)O)c(C(=O)O)c1)C(=O)N[C@@H](CC(C)C)C(N)=O (Ac-DADE[X1]L-NH2)
7 | – | 0.022 | O=C(O)c1ccc2cc(C(F)(F)P(=O)(O)O)ccc2c1
8 | 3.8 | – | NC(=O)[C@H](CCC(=O)O)NC(=O)c1ccc2c(C(=O)O)c(OCC(=O)O)ccc2c1
9 | – | 0.031 | O=C(O)c1ccc2c(C(=O)O)cccc2c1

The next lines start with the compound.

Row | Structure (SMILES) | IC50 [mM] | Ki [mM]
10 | O=S(=O)(O)c1ccc2c(S(=O)(=O)O)cc(S(=O)(=O)O)cc2c1 | > 4 | –
11 | O=C(O)c1ccc2ccc(C(=O)O)cc2c1 | > 3.2 | –
12 | O=C(O)COc1cc2ccc(C(=O)O)cc2cc1C(=O)O | – | 0.25
13 | O=C(O)c1ccc2c(C(=O)O)c(O)ccc2c1 | 12 | –
14 | NC(=O)[C@@H](CCC(=O)O)NC(=O)c1ccc2cc(C(F)(F)P(=O)(O)O)ccc2c1 | – | 0.012
15 | CC(=O)N[C@@H](CC(=O)O)C(=O)N[C@@H](C)C(=O)N[C@@H](CC(=O)O)C(=O)N[C@@H](CCC(=O)O)C(=O)N[C@@H](Cc1ccc(C(F)(F)P(=O)(O)O)cc1)C(=O)N[C@@H](CC(C)C)C(N)=O (Ac-DADE[F2Pmp]L-NH2) | – | 0.0002
16 | O=S(=O)(O)c1ccc2cc(S(=O)(=O)O)ccc2c1 | > 4 | –
17 | CS(=O)(=O)Nc1cccc2cc(S(=O)(=O)O)ccc12 | 29 | –
18 | O=C(O)COc1ccc2cc(C(=O)O)ccc2c1 | 9.4 | –
19 | O=C(O)c1ccc2cc(C(=O)O)ccc2c1 | > 4 | –
